From BindingDB's records for doi:10.1016/0922-4106(95)90043-8 (Uppsala, 1995)
pKi: −log10 of the molar value. Non-standard residues stand in square brackets, D forms with d. Residues, ends and D or L forms follow the SMILES beside them. Met(O2) = CS(=O)(=O)CC[C@H](N)C(=O)O

How the values were obtained:
[1] = target: Melanocortin receptor 5 (Homo sapiens, UniProt P33032)
[2] = target: Melanocortin receptor 3 (Homo sapiens, UniProt P41968)
[3] = target: Melanocyte-stimulating hormone receptor (Homo sapiens, UniProt Q01726)
Chain of Melanocyte-stimulating hormone receptor (Q01726 whole entry): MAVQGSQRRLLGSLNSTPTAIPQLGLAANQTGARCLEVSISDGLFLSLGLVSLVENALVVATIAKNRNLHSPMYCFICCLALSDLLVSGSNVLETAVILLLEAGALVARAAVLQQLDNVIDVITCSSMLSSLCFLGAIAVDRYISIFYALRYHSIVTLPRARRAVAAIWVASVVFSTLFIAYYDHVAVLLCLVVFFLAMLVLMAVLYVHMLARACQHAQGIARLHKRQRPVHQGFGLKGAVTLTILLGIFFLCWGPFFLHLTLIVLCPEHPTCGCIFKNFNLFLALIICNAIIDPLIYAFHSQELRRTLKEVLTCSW

Chain of Melanocortin receptor 3 (P41968 whole entry): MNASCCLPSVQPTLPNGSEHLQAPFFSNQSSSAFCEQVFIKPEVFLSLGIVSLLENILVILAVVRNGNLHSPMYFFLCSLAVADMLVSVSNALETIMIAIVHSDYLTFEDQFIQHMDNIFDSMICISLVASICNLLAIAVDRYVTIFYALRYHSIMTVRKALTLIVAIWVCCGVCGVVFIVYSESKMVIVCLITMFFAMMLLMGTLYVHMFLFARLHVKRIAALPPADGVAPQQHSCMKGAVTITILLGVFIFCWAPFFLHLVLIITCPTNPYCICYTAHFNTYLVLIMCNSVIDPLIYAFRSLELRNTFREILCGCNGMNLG
Chain of Melanocortin receptor 5 (P33032 whole entry): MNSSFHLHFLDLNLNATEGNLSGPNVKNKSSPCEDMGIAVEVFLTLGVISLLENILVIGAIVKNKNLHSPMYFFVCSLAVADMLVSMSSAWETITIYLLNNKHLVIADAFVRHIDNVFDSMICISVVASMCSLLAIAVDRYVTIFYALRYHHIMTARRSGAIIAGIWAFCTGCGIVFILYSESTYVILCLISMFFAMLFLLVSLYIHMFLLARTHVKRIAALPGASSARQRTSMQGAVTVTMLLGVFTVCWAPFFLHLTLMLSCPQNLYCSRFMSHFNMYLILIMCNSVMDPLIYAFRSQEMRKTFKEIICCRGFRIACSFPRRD

| Compound | pKi [1] | pKi [2] | pKi [3] |
| --- | --- | --- | --- |
| CSCC[C@H](NC(=O)[C@H](CO)NC(=O)[C@H](Cc1ccc(O)cc1)NC(=O)[C@@H](N)CO)C(=O)N[C@@H](CCC(=O)O)C(=O)N[C@@H](Cc1cnc[nH]1)C(=O)N[C@@H](Cc1ccccc1)C(=O)N[C@@H](CCCNC(=N)N)C(=O)N[C@@H](Cc1c[nH]c2ccccc12)C(=O)NCC(N)=O [ACTH-(1-10)] | < 5.00 | 6.84 |  |
| CS(=O)(=O)CC[C@H](N)C(=O)N[C@@H](CCC(=O)O)C(=O)N[C@@H](Cc1c[nH]cn1)C(=O)N[C@@H](Cc1ccccc1)C(=O)N[C@H](CCCCN)C(=O)N[C@@H](Cc1ccccc1)C(=O)O [CAS_50913-82-1] (H-[Met(O2)]EHF[dK]F-OH) | < 5.00 | < 5.00 | < 5.00 |
| H-SMEVRGW-OH [delta MSH] | < 5.00 | < 5.00 | < 5.00 |

The remaining lines, values ahead:

| pKi [1] | pKi [2] | pKi [3] | Compound |
| --- | --- | --- | --- |
|  |  | 8.57 | CSCC[C@H](NC(=O)[C@@H](NC(=O)[C@@H](N)Cc1ccc(O)cc1)C(C)C)C(=O)NCC(=O)N[C@@H](Cc1cnc[nH]1)C(=O)N[C@@H](Cc1ccccc1)C(=O)N[C@@H](CCCN=C(N)N)C(=O)N[C@@H](Cc1c[nH]c2ccccc12)C(=O)N[C@@H](CC(=O)O)C(=O)N[C@@H](CCCN=C(N)N)C(=O)N[C@@H](Cc1ccccc1)C(N)=O [Gamma1-MSH] |
| < 5.00 | 6.11 | 6.97 | CSCC[C@H](N)C(=O)N[C@@H](CCC(=O)O)C(=O)N[C@@H](Cc1cnc[nH]1)C(=O)N[C@@H](Cc1ccccc1)C(=O)N[C@@H](CCCNC(=N)N)C(=O)N[C@@H](Cc1c[nH]c2ccccc12)C(=O)NCC(N)=O [NSC_123787] |
| < 5.00 | 7.06 | 8.60 | H-SYSMEHFRWGKPVGKKRRPVKVYPNGAEDESAEAFPLEF-OH [ACTH] |
| < 5.00 | 7.96 | 8.86 | H-YVMGHFRWDRFGRRNGSSSSGVGGAAQ-OH [Gamma3-MSH] |
